Laboratory results reported in ChEMBL document CHEMBL1201862, “PubChem BioAssay data set” (2004).
Active and inactive are the calls of the source.

Experiments:
[1] = biological target: DNA dC->dU-editing enzyme APOBEC-3G (Homo sapiens, UniProt Q9HC16); type: functional;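 further: Dose-response counterscreen measuring inhibition of APOBEC3G DNA deaminase activity, run while confirming APOBEC3A inhibitors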
[2] = biological target: DNA dC->dU-editing enzyme APOBEC-3A (Homo sapiens, UniProt P31941); test: Dose Response confirmation of small molecule APOBEC3A DNA Deaminase Inhibitors via a fluorescence-based single-stranded DNA deaminase assay. [Related pubchem assays (depositor defined):AID493011, AID493024]; type: functional
[3] = biological target: Polyadenylate-binding protein 1 (Homo sapiens, UniProt P11940); test: blockers of PABP interaction with poly(A) – biochemical, fluorescence polarization, […] (AID 2014)
[4] = biological target: Eukaryotic translation initiation factor 4H (Homo sapiens, UniProt Q15056); test: eIF4H binding inhibition – biochemical, uHTS, fluorescence polarization, translation initiation inhibitor project, primary screen (AID 2012)
[5] = biological target: Coagulation factor XII (Homo sapiens, UniProt P00748); type: functional;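 further: activated factor XIIa alpha cleaving a fluorogenic AMC peptide substrate; inhibitor potency from loss of enzyme activity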
[6] = tested on: Vero; test: cells; type: functional; details: Chlorocebus sabaeus
[7] = biological target: T1, Type-1 angiotensin II receptor (Homo sapiens, UniProt P30556); test: agonist activity at AGTR1 – cell-based, uHTS hits, selectivity assay for APJ receptor agonist project, dose response (AID 488865); type: functional;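 further: beta-arrestin recruitment to AT1 measured by enzyme fragment complementation luminescence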
T1 sequence (P30556 whole entry): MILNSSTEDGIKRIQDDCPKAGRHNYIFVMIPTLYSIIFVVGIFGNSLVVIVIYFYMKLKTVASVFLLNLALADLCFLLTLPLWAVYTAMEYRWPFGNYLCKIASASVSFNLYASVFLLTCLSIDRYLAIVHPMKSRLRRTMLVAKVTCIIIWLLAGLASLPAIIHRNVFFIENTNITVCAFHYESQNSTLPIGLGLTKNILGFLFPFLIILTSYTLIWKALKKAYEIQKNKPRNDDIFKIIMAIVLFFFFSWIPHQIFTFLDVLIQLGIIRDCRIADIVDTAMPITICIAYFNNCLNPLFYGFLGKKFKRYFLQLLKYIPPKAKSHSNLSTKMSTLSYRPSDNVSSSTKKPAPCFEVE

[8] = biological target: T2, Cannabinoid receptor 1 (Homo sapiens, UniProt P21554); test: SAR analysis of antagonists of the Cannabinoid Receptor 1 using an Image-Based Assay - Set 3. [Related pubchem assays (depositor defined):AID1961, AID1965]; type: functional
[9] = biological target: T3, Cannabinoid receptor 2 (Homo sapiens, UniProt P34972); test: SAR analysis of antagonists of the Cannabinoid Receptor 2 using an Image-Based Assay - Set 2. [Related pubchem assays (depositor defined):AID1961, AID1965]; type: functional
[10] = biological target: T4, G-protein coupled receptor 35 (Homo sapiens, UniProt Q9HC97); test: SAR analysis of Antagonists of the GPR35 Receptor using an Image-Based Assay - Set 4. [Related pubchem assays (depositor defined):[…]]; type: functional
[11] = biological target: T2, Cannabinoid receptor 1; test: SAR analysis of agonists of the Cannabinoid Receptor 1 using an Image-Based Assay - Set 3. [Related pubchem assays (depositor defined):AID1961, AID1965]; type: functional
[12] = biological target: T3, Cannabinoid receptor 2; test: SAR analysis of agonists of the Cannabinoid Receptor 2 using an Image-Based Assay - Set 2. [Related pubchem assays (depositor defined):AID1961, AID1965]; type: functional
[13] = biological target: T4, G-protein coupled receptor 35; test: SAR analysis of Agonists of the GPR35 Receptor using an Image-Based Assay - Set 3. [Related pubchem assays (depositor defined):AID1961, AID1965]; type: functional
[14] = biological target: G-protein coupled receptor 55 (Homo sapiens, UniProt Q9Y2T6); test: SAR analysis of selective Agonists of GPR55 using an Image-Based Assay - Set 2. [Related pubchem assays (depositor defined):AID1961, AID1965]; type: functional
[15] = biological target: T5, Streptokinase A (Streptococcus pyogenes serotype M1, UniProt P10520); test: viability-normalized secreted streptokinase activity reduction – plasminogen activation absorbance, OD405, dose response (AID 1914); type: functional, Streptococcus pyogenes M1 GAS;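 further: secreted streptokinase activity via plasminogen activation per viability signal from cell pellet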
T5 sequence (P10520 whole entry): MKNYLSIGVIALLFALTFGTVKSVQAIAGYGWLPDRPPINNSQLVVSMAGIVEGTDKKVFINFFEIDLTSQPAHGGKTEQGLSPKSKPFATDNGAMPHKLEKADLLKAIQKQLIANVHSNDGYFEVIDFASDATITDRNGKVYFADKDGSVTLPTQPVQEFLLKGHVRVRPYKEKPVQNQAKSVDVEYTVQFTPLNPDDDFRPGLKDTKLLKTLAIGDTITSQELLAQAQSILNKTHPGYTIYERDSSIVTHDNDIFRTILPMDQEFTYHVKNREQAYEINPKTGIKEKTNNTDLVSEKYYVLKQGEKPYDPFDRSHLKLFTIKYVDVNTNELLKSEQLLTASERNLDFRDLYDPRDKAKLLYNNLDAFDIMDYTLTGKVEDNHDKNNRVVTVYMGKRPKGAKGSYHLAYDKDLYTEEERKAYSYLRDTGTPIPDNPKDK

[16] = tested on: Streptococcus; test: GAS UMAA2166 growth inhibition – luminescence, BacTiterGlo, counter-screen for streptokinase expression inhibitor project, dose response (AID 1915); type: functional, organism-based;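 further: potency for reduction of bacterial viability or growth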
[17] = tested on: Streptococcus sp. 'group A'; test: Streptococcus pyogenes SK(-)GAS viability under kanamycin – luminescence, BacTiterGlo, confirmation, counter-screen for streptokinase expression inhibitor project, dose response (AID 1900); type: functional, organism-based
[18] = biological target: DNA damage-inducible transcript 3 protein (Mus musculus, UniProt P35639); type: functional, Cricetulus griseus
[19] = HPDE-C7 pancreatic duct cell viability loss – fluorescence, HTS (AID 430); type: functional, cell-based; details: Homo sapiens
[20] = biological target: Beta-galactosidase (Escherichia coli, UniProt Q8VNN2); test: Dose response counterscreen for EBI2 assay utilizing the enzyme, b-galactosidase.; type: functional
[21] = viability loss of HPDE-C7K cells – cell-based, fluorescence, HTS, primary screen (AID 431); type: functional; details: Homo sapiens

T3 sequence (P34972 whole entry): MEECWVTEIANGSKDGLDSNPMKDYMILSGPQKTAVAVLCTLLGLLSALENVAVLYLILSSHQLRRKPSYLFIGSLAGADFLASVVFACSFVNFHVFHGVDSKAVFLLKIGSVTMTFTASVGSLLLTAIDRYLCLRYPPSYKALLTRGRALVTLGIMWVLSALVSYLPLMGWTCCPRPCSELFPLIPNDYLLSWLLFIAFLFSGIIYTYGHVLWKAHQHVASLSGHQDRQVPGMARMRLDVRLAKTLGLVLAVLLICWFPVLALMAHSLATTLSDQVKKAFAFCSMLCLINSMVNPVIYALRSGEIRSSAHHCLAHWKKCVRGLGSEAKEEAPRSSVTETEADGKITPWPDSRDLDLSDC
T4 sequence (Q9HC97 whole entry): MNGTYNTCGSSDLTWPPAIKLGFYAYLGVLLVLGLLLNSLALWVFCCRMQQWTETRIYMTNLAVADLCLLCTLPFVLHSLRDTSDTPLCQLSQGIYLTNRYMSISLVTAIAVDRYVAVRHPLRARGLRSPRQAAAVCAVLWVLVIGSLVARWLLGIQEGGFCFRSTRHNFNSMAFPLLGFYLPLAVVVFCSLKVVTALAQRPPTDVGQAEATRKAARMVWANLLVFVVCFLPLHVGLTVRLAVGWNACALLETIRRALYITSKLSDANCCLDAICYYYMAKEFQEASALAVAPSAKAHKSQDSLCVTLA
T2 sequence (P21554 whole entry): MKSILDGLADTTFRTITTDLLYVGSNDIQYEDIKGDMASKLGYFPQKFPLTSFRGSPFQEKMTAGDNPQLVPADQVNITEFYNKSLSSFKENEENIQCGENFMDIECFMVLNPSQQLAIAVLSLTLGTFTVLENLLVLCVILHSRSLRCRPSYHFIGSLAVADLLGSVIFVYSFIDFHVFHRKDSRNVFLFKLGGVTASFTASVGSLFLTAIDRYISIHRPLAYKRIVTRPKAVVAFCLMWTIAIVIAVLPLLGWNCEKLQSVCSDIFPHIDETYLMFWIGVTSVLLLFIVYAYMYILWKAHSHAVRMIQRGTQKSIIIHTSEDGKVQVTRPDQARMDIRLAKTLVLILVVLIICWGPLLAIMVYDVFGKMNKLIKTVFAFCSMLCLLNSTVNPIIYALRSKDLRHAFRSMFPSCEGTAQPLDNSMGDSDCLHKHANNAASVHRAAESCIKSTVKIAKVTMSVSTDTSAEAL
Sequence of Coagulation factor XII (P00748 20-372 limits assumed): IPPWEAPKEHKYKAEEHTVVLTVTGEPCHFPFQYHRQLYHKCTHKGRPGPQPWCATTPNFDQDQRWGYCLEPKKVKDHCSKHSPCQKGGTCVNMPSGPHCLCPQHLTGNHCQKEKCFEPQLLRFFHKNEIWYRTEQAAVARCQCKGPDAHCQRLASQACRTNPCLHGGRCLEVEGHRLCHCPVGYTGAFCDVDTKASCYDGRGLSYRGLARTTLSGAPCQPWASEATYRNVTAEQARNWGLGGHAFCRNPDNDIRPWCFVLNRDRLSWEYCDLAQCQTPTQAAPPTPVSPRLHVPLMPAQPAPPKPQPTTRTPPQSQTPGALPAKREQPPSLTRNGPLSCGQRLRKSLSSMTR
Sequence of Coagulation factor XII (P00748 373-615 limits assumed): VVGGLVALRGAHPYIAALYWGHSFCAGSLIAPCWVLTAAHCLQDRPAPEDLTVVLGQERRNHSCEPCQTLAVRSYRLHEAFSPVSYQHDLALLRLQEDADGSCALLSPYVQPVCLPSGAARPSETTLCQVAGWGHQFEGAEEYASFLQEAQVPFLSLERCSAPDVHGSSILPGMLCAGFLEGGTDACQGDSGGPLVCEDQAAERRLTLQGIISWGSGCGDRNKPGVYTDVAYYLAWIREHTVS
Sequence of DNA dC->dU-editing enzyme APOBEC-3G (Q9HC16 whole entry): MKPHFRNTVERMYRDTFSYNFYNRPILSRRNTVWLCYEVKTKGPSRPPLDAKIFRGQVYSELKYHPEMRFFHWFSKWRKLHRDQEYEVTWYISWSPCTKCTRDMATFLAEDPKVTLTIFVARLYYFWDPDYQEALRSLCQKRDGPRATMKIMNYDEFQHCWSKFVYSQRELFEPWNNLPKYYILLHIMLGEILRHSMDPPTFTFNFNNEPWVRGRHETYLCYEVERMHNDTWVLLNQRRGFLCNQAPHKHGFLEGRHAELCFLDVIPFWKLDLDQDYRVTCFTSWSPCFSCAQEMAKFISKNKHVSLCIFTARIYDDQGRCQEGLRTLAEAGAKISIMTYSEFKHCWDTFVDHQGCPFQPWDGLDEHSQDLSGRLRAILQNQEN
Sequence of Polyadenylate-binding protein 1 (P11940 whole entry): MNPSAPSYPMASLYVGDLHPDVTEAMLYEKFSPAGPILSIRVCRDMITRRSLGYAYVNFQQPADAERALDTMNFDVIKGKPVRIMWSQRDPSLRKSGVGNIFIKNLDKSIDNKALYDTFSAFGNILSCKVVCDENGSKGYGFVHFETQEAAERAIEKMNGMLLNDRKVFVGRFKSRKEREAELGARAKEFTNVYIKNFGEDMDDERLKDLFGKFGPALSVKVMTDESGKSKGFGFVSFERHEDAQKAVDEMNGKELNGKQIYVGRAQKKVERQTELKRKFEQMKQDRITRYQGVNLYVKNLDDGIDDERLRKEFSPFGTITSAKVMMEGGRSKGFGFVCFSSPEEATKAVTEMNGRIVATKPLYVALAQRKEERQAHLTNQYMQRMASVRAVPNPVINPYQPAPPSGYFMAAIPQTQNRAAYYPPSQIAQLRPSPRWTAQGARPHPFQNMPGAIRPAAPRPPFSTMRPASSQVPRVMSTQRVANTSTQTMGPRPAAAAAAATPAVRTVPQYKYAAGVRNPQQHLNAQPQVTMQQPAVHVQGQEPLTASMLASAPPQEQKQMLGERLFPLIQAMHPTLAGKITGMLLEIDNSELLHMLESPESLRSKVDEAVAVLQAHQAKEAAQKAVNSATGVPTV
Sequence of Beta-galactosidase (Q8VNN2 whole entry): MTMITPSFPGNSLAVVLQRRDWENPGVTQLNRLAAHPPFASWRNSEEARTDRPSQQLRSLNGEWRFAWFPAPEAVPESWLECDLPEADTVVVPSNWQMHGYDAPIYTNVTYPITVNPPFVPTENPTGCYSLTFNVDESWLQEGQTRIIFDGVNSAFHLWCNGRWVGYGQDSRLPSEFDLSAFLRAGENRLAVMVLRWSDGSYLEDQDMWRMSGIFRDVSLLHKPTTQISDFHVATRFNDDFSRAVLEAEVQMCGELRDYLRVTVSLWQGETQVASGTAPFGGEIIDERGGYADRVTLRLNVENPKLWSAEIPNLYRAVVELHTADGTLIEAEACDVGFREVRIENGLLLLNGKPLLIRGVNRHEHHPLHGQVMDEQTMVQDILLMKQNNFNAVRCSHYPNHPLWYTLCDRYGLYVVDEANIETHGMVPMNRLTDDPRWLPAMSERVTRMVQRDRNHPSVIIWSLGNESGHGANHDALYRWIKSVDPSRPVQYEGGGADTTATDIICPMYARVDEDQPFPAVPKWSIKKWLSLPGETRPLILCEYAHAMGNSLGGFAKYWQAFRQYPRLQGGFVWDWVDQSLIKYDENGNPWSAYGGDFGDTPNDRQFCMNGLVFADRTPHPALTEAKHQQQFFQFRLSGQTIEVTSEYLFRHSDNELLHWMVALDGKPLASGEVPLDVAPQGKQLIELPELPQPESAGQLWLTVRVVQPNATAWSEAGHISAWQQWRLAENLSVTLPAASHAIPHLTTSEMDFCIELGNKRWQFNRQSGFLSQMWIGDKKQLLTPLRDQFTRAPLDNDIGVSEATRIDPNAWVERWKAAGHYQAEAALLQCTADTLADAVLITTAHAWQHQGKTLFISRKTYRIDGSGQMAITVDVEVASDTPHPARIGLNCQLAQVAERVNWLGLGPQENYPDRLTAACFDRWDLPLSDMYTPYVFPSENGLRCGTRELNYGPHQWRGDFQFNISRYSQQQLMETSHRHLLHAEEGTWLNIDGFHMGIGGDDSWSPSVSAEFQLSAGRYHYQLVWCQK
Sequence of DNA damage-inducible transcript 3 protein (P35639 whole entry): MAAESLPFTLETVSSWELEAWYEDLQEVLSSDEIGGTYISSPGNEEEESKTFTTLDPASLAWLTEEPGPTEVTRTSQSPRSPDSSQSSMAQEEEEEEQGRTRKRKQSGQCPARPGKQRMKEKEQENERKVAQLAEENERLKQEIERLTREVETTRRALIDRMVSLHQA
Sequence of DNA dC->dU-editing enzyme APOBEC-3A (P31941 whole entry): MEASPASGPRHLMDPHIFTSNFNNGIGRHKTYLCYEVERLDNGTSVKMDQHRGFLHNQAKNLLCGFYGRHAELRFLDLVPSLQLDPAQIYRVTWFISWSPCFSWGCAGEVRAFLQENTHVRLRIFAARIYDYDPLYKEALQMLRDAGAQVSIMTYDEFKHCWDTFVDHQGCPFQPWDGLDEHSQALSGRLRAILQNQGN
Sequence of G-protein coupled receptor 55 (Q9Y2T6 whole entry): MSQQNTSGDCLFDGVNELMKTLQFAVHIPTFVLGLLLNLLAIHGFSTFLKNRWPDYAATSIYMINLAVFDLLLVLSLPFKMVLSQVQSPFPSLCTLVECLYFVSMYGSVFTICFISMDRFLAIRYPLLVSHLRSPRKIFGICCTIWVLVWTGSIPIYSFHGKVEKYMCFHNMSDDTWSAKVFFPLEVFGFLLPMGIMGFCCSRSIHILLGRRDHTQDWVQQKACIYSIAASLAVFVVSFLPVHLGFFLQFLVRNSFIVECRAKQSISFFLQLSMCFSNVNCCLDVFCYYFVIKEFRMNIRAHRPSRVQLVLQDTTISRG

Oc1ccccc1C=N[n+]1ccccc1
IC50 [1]: 5.33 µM (active)
IC50 [2]: 2.88 µM (active)
IC50 [3]: 5.32 µM (active)
IC50 [4]: > 100 µM (inactive)

COC(=O)c1ccc(C(C(=O)NC2CCCCC2)N(CCN2CCOCC2)C(=O)Cc2cccs2)cc1 (stereo unspecified)
IC50 [5]: > 50 µM (inactive)

CCN(CC)CCNC(=O)c1cc(-c2cccnc2)nc2ccc(S(=O)(=O)N3CCC(C)CC3)cc12
CC50 [6]: 9.06 µM (active)
EC50 [7]: > 100 µM (inactive)

Cc1cc2cc3c(cc2n2c(SCC(=O)Nc4nc(-c5ccccc5)cs4)nnc12)OCCO3
IC50 [8]: 12.7 µM (inactive)
IC50 [9]: > 32 µM (inactive)
IC50 [10]: > 32 µM (inactive)
EC50 [11]: > 32 µM (inactive)
EC50 [12]: > 32 µM (inactive)
EC50 [13]: > 32 µM (inactive)
EC50 [14]: 4.42 µM (active)

Nc1c(S(=O)(=O)c2ccccc2)c2nc3ccccc3nc2n1/N=C/c1cccc(O)c1
EC50 [15]: 23.6 µM (active)
EC50 [16]: 75.4 µM (active)
EC50 [17]: 7.72 µM (active)
Absolute IC50 (CHOP) [18]: 10 µM
EC50 [19]: 2.92 µM (active)
IC50 [20]: > 80 µM (inactive)
EC50 [21]: 2.83 µM (active)
